Results reported in PubChem BioAssay (NCI).
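Tested at 5 concentrations; 48 h exposure; 96-well plates; endpoints linearly interpolated, else capped at highest concentration. TGI is the concentration that stops growth completely.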

How the values were obtained:
Assay in all cases: inhibition of tumour cell growth, NCI panel, 48 h
HS 578T breast = system: HS 578T breast
A549 NSCLC = system: A549 NSCLC
OVCAR-4 ovarian = system: OVCAR-4 ovarian
SF-295 CNS = system: SF-295 CNS
A498 renal = system: A498 renal
786-0 renal = system: 786-0 renal
SR leukemia = system: SR leukemia
OVCAR-8 ovarian = system: OVCAR-8 ovarian
SK-MEL-2 melanoma = system: SK-MEL-2 melanoma
NCI-H23 lung = system: NCI-H23 lung
SNB-19 CNS = system: SNB-19 CNS
DU-145 prostate = system: DU-145 prostate
SK-OV-3 ovarian = system: SK-OV-3 ovarian
ACHN renal = system: ACHN renal
NCI-H522 lung = system: NCI-H522 lung
SK-MEL-28 melanoma = system: SK-MEL-28 melanoma
NCI-H226 lung = system: NCI-H226 lung
U251 CNS = system: U251 CNS
NCI-H460 lung = system: NCI-H460 lung
K-562 leukemia = system: K-562 leukemia
HCC-2998 colon = system: HCC-2998 colon
COLO 205 colon = system: COLO 205 colon
SN12C renal = system: SN12C renal
MDA-MB-231 breast = system: MDA-MB-231 breast
MOLT-4 leukemia = system: MOLT-4 leukemia
CCRF-CEM leukemia = system: CCRF-CEM leukemia
UACC-257 melanoma = system: UACC-257 melanoma
T-47D breast = system: T-47D breast
CAKI-1 renal = system: CAKI-1 renal
RPMI-8226 leukemia = system: RPMI-8226 leukemia
M14 melanoma = system: M14 melanoma
UO-31 renal = system: UO-31 renal
SW-620 colon = system: SW-620 colon
LOX IMVI melanoma = system: LOX IMVI melanoma
NCI/ADR-RES ovarian = system: NCI/ADR-RES ovarian
MDA-MB-435 = system: MDA-MB-435
KM12 colon = system: KM12 colon
HCT-116 colon = system: HCT-116 colon
TK-10 renal = system: TK-10 renal
PC-3 prostate = system: PC-3 prostate
BT-549 breast = system: BT-549 breast
SNB-75 CNS = system: SNB-75 CNS
EKVX NSCLC = system: EKVX NSCLC
HT29 colon = system: HT29 colon
MCF7 breast = system: MCF7 breast
OVCAR-5 ovarian = system: OVCAR-5 ovarian
HCT-15 colon = system: HCT-15 colon
SK-MEL-5 melanoma = system: SK-MEL-5 melanoma
RXF 393 renal = system: RXF 393 renal
IGROV1 ovarian = system: IGROV1 ovarian
MALME-3M melanoma = system: MALME-3M melanoma
MDA-N = system: MDA-N
SF-268 CNS = system: SF-268 CNS
HL-60(TB) leukemia = system: HL-60(TB) leukemia
OVCAR-3 ovarian = system: OVCAR-3 ovarian
HOP-62 NSCLC = system: HOP-62 NSCLC
HOP-92 NSCLC = system: HOP-92 NSCLC
UACC-62 melanoma = system: UACC-62 melanoma
LXFL 529 NSCLC = system: LXFL 529 NSCLC
DMS 114 small cell lung = system: DMS 114 small cell lung
KM20L2 colon = system: KM20L2 colon
HOP-18 NSCLC = system: HOP-18 NSCLC
DLD-1 colon = system: DLD-1 colon
DMS 273 small cell lung = system: DMS 273 small cell lung
SF-539 CNS = system: SF-539 CNS
M19-MEL melanoma = system: M19-MEL melanoma

Cc1ccc2[nH]c3c(c2c1)C1CCC(C(C)(C)C)CC1C1C(=O)N(c2ccc(Oc4ccccc4)cc2)C(=O)C31 (centres undefined)
TGI (HS 578T breast): 8.28 µM
TGI (A549 NSCLC): > 100 µM
TGI (OVCAR-4 ovarian): 42.6 µM
TGI (SF-295 CNS): > 100 µM
TGI (A498 renal): 31.5 µM
TGI (786-0 renal): 28.3 µM
TGI (SR leukemia): 3.07 µM
TGI (OVCAR-8 ovarian): 38.6 µM
TGI (SK-MEL-2 melanoma): > 100 µM
TGI (NCI-H23 lung): 58.9 µM
TGI (SNB-19 CNS): > 71.9 µM
TGI (DU-145 prostate): > 100 µM
TGI (SK-OV-3 ovarian): 94.7 µM
TGI (ACHN renal): > 100 µM
TGI (NCI-H522 lung): 45 µM
TGI (SK-MEL-28 melanoma): > 100 µM
TGI (NCI-H226 lung): > 86.9 µM
TGI (U251 CNS): 21.6 µM
TGI (NCI-H460 lung): > 100 µM
TGI (K-562 leukemia): 31.3 µM
TGI (HCC-2998 colon): > 100 µM
TGI (COLO 205 colon): > 100 µM
TGI (SN12C renal): 37 µM
TGI (MDA-MB-231 breast): > 100 µM
TGI (MOLT-4 leukemia): 7.92 µM
TGI (CCRF-CEM leukemia): 8.26 µM
TGI (UACC-257 melanoma): > 100 µM
TGI (T-47D breast): > 68.2 µM
TGI (CAKI-1 renal): 45.4 µM
TGI (RPMI-8226 leukemia): 40.5 µM
TGI (M14 melanoma): > 100 µM
TGI (UO-31 renal): > 100 µM
TGI (SW-620 colon): > 100 µM
TGI (LOX IMVI melanoma): > 100 µM
TGI (NCI/ADR-RES ovarian): > 100 µM
TGI (MDA-MB-435): > 100 µM
TGI (KM12 colon): > 100 µM
TGI (HCT-116 colon): > 100 µM
TGI (TK-10 renal): 84.4 µM
TGI (PC-3 prostate): > 100 µM
TGI (BT-549 breast): 64.1 µM
TGI (SNB-75 CNS): 9.08 µM
TGI (EKVX NSCLC): > 100 µM
TGI (HT29 colon): > 100 µM
TGI (MCF7 breast): > 100 µM
TGI (OVCAR-5 ovarian): > 81 µM
TGI (HCT-15 colon): > 100 µM
TGI (SK-MEL-5 melanoma): > 100 µM
TGI (RXF 393 renal): 29.1 µM
TGI (IGROV1 ovarian): > 100 µM
TGI (MALME-3M melanoma): 41.9 µM
TGI (MDA-N): > 100 µM
TGI (SF-268 CNS): 41.6 µM
TGI (HL-60(TB) leukemia): 8.09 µM
TGI (OVCAR-3 ovarian): 35.4 µM
TGI (HOP-62 NSCLC): > 100 µM
TGI (HOP-92 NSCLC): 45.7 µM
TGI (UACC-62 melanoma): > 100 µM

CN(C)C(=C1C(Br)=C(Br)C(Br)=C1Br)N(C)C
TGI (A549 NSCLC): > 100 µM
TGI (OVCAR-4 ovarian): > 100 µM
TGI (SF-295 CNS): > 100 µM
TGI (LXFL 529 NSCLC): > 100 µM
TGI (786-0 renal): > 100 µM
TGI (OVCAR-8 ovarian): > 100 µM
TGI (SK-MEL-2 melanoma): > 100 µM
TGI (NCI-H23 lung): > 100 µM
TGI (SK-OV-3 ovarian): > 100 µM
TGI (ACHN renal): > 100 µM
TGI (NCI-H522 lung): 39.9 µM
TGI (SK-MEL-28 melanoma): > 100 µM
TGI (U251 CNS): > 100 µM
TGI (DMS 114 small cell lung): > 100 µM
TGI (NCI-H460 lung): > 100 µM
TGI (KM20L2 colon): > 100 µM
TGI (K-562 leukemia): > 100 µM
TGI (HCC-2998 colon): > 100 µM
TGI (COLO 205 colon): > 100 µM
TGI (SN12C renal): > 100 µM
TGI (MOLT-4 leukemia): > 100 µM
TGI (HOP-18 NSCLC): > 100 µM
TGI (CCRF-CEM leukemia): 95.3 µM
TGI (UACC-257 melanoma): > 100 µM
TGI (CAKI-1 renal): > 100 µM
TGI (RPMI-8226 leukemia): 76.7 µM
TGI (DLD-1 colon): > 100 µM
TGI (M14 melanoma): > 100 µM
TGI (UO-31 renal): > 100 µM
TGI (SW-620 colon): > 100 µM
TGI (LOX IMVI melanoma): 55.6 µM
TGI (KM12 colon): > 100 µM
TGI (TK-10 renal): > 100 µM
TGI (SNB-75 CNS): > 100 µM
TGI (EKVX NSCLC): > 100 µM
TGI (HT29 colon): > 100 µM
TGI (DMS 273 small cell lung): > 100 µM
TGI (SF-539 CNS): > 100 µM
TGI (OVCAR-5 ovarian): > 100 µM
TGI (HCT-15 colon): > 100 µM
TGI (SK-MEL-5 melanoma): > 100 µM
TGI (RXF 393 renal): > 100 µM
TGI (IGROV1 ovarian): > 100 µM
TGI (MALME-3M melanoma): > 100 µM
TGI (M19-MEL melanoma): > 100 µM
TGI (SF-268 CNS): > 100 µM
TGI (HL-60(TB) leukemia): > 100 µM
TGI (OVCAR-3 ovarian): > 100 µM
TGI (HOP-62 NSCLC): > 100 µM
TGI (HOP-92 NSCLC): > 100 µM
TGI (UACC-62 melanoma): > 100 µM
